Results: patent publication US20030228402A1, “Compositions and methods for preservation of food” (priority 2002, published 2003)
Read-outs that look alike come from different tables or passages of the source.

Tests used:
[1] = Solution and suspension levels of terpenes in water
Text: The terpene and water were blended in a household blender for 30 seconds.
Examples of these levels are as follows.

[2] = test system: E. coli strain AW574; assay: E. coli growth (O.D.) with single or combined terpenes; assay type: cell-based; settings: single terpene 2 μMol; 24 hours
Procedure: E. coli strain AW574 was grown in tryptone broth to an exponential growth phase (O.D. between 0.4 and 1.0 at 590 nm). One tenth of this growth was inoculated to 10 ml of tryptone broth followed by the addition of individual terpenes or as indicated on Table 8; then incubated for 24 hours at 35-37° C., and the O.D. determined in each tube. The concentration of terpenes was 1 or 2 μMol. Each treatment was repeated in triplicate. The results are expressed as percentage bacterial growth as compared to the control treatment.
E. coli strain AW574 was grown in tryptone broth to an exponential growth phase (O.D. between 0.4 and 1.0 at 590 nm).
One tenth of this growth was inoculated to 10 ml of tryptone broth followed by the addition of individual terpenes or as indicated on Table 18; then incubated for 24 hours at 35-37° C. and the O.D. determined in each tube.
The concentration of terpenes was 1 or 2 μMol. Each treatment was repeated in triplicate.
The results are expressed as percentage bacterial growth as compared to the control treatment.

[3] = test system: E. coli strains AW574 or AW405; assay: Lysis of E. coli by terpenes (galactosidase activity, ONPG); assay type: cell-based
Text: Lysis of the cell membrane was monitored by the determination of galactosidase activity. B-galactosidase is a well-characterized cytosolic enzyme in bacteria. This enzyme is inducible in the presence of isopropyl-1-thiogalactosidase (IPTG) and assayed calorimetrically with substrate o-nitro-phenyl-B-D-galactoside (ONPG). ONPG is cleaved to release o-nitrophenol which has a peak absorbance at 420 nm.
Since intact E. coli is impermeable to both ONPG and the enzyme, the cells have to be lysed prior to enzymatic assay. Therefore, the ability of terpenes to lyse E. coli can be measured with this enzymatic assay and compared to known lysing agents.
The procedure used was as follows: E. coli strains AW574 or AW405 were cultured overnight in 10 ml tryptone broth with […] at 35° C. Cells were allowed to grow after an absorbance equal to 0.9 was reached.
Cells were harvested, washed with phosphate buffer and resuspended to an absorbance equal to 0.5.
0.1 ml of the bacteria culture was added to 0.9 ml of buffer, warmed to 30° C., and then 80 μl of terpenes (85% terpenes and 15% polysorbate-80), 80 μl water (background), or 40 μl chloroform plus 40 μl 1% SDS in water (positive control) were added.
After the addition of the lysing agents the tubes were mixed for 10 seconds, and 0.2 ml of ONPG (4 mg/ml water) was added, then incubated for 5 minutes. The 5 enzyme activity was stopped with 0.5 ml of 1 M sodium carbonate. After being centrifuged for 3 minutes at 1,500×g, supernatant was transferred to cuvettes and read at 420 nm.
The relative degree of lysis caused by terpenes was calculated as follows: 100× (O.D. terpenes—O.D. water)/(O.D. chloroform—O.D. water).

[4] = test system: E. coli; settings: cited from earlier work
[5] = test system: erythrocytes; assay type: cell-based; settings: 20 min
Procedure: These mixtures were incubated for 20 minutes.

[6] = Break down of terpenes in the presence of oxygen / potency of solution; assay type: physicochemical; settings: 500 ppm solution
Text: Terpenes will break down in the presence of oxygen. Citral, for example, is an aldehyde and will decay (oxygenate) over a period of days.

[7] = test system: Mycoplasma pneumoniae; assay: Killing of Mycoplasma pneumoniae, color change of SP4 medium; assay type: cell-based; settings: for killing effect (color change of first tube): three days after the 10-fold dilution
Procedure: This mixture was then used to make concentrations of 2500 ppm in sterile phosphate buffer saline (PBS) by blending the mixture in PBS for 40 seconds. […] PBS containing 25 ppm Tween® 80 or PBS alone was used to treat cells suspension as controls. […] After 40 hours of treatment, 10-fold serial dilution was performed to 10 (−10) by first taking 0.1 mL of the treated culture suspension was added into 0.9 mL of fresh SP4 (Whitcomb (1983); SP4 media is commercially available (Remel, Lenexa, Kans., USA)). All the tubes were then incubated at 37° C., and a color change of the medium was used for the indication of the cells that either were killed or survived from the treatment. Color change was from red to yellow because Mycoplasma pneumoniae produces acid during its growth. All the treatments were performed in duplicate.

[8] = 62.5, 125 and 250 ppm, 40 hours treatment

Molecule: C=C(C)C1CC=C(C)C(=O)C1 (stereo not shown) [Carvone]
- Level (maximum level of terpene solubilized, solution level) ([1]; true solution in water without surfactant, high shear mixing): 500 ppm
- % growth (bacterial growth as compared to the control treatment) [2]: 63.00%
- Relative lysis % ([3]; 404 μM): 3.2%
- Relative lysis % ([3]; 4,040 μM): 22%
- Relative lysis % ([3]; 40,400 μM): 54%

Molecule: CC(C)=CCCC(C)=CC=O [Citral, 3,7-dimethyl-2,6-octadien-1-al]
- citral in growth media with bactericidal effect [4]: 0.08%
- concentration that will lyse human erythrocytes [5]: approximately 1000 ppm
- time in which the solution will lose half its potency [6]: 2-3 weeks

Molecule: CC(C)=CCC/C(C)=C/CO [Geraniol]
- Level (maximum level of terpene solubilized, solution level) [1]: 500 ppm
- % growth (bacterial growth as compared to the control treatment) [2]: 54.00%
- Relative lysis % ([3]; 3.63 μM): 2.4%
- Relative lysis % ([3]; 36.3 μM): 4%
- Relative lysis % ([3]; 363 μM): 34%
- Relative lysis % ([3]; 3,630 μM): 98%
- Relative lysis % ([3]; 36,300 μM): 96%

Molecule: CC(=O)/C=C/C1=C(C)CCCC1(C)C [b-ionone]
- killing effect (color change of first tube) [7, 8]: killing effect
- tubes of the 10-fold dilution series that changed color ([7]; 62.5 ppm, 6 days after the 10-fold dilution): only the first tube
- killing of all cells ([7]; 125 and 250 ppm, 40 hours treatment, 6 days after the 10-fold dilution): may have completely killed all cells
- Level (maximum level of terpene solubilized, solution level) [1]: 500 ppm
- % growth (bacterial growth as compared to the control treatment) [2]: 84.00%
- Relative lysis % ([3]; 0.0308 μM): 1.3%
- Relative lysis % ([3]; 0.308 μM): 4.78%
- Relative lysis % ([3]; 3.08 μM): 23%
- Relative lysis % ([3]; 30.8 μM): 44%
- Relative lysis % ([3]; 308 μM): 52%

Molecule: L-carvone
- killing effect (color change of first tube) [7, 8]: no killing effects
- tubes of the 10-fold dilution series that changed color ([7]; 62.5, 125 and 250 ppm, 6 days after the 10-fold dilution): second and third tube

Molecule: Terpeniol
- Level (maximum level of terpene solubilized, solution level) [1]: 500 ppm
